# Results reported in patent US9835629B2, “Methods and reagents for biomolecule labeling, enrichment and gentle elution” (Pierce Biotechnology, Inc., priority 2012, dated 2017).
# How the values were obtained:
# [1] = tested on: anti-TMT immobilized antibody resin; assay: elution of iodoTMT-labeled peptides of a cell lysate from anti-TMT resin, LC-MS/MS; set-up: species or system mice
# Description: Peptides were washed with Tris buffered saline (TBS), […] detergent (Waters), or CHAPS detergent and eluted with 0.4% trifluoracetic acid (pH about 2), or washed with TBS and water prior to elution with DMP at the indicated concentrations and pH. Eluted peptides were analyzed by LC-MS/MS on a Thermo Scientific ORBITRAP XL and data was interpreted with Thermo Scientific PROTEOME DISCOVERER 1.3 to identify the eluted peptides and the number of iodoTMT labeled peptides specifically eluted (percentage shown above each bar). In FIG. 4B, a cell lysate was S-nitrosylated in vitro with nitroglutathione, the free thiols were irreversibly alkylated with iodoacetamide, the nitroso groups were reduced and selectively released with ascorbic acid, the newly exposed cysteines were irreversibly alkylated with iodoTMT, and the samples were then reduced to remove disulfide linkages, alkylated with iodoacetamide, and digested with trypsin. These peptide samples were enriched with the anti-TMT antibody, and samples of the load, the flowthrough, and the non-specific and specific elutions were assessed for peptide recovery and specificity.
# Cell lysates were labeled with an irreversible cysteine-reactive iodoacetyl TMT® reagent, digested, and then captured with the anti-TMT™ resin. The bound peptides were eluted non-specifically with different pH and detergent conditions or specifically with different concentrations and pH of DMP elution reagent (FIG. 4A). […] As DMP is not a biological molecule, there is no interference from endogenous levels. In contrast, biotinylated molecules are more difficult to recover and may result in the enrichment of interfering endogenously biotinylated molecules.
# anti-TMT™ antibody [2] = assay: enrichment and elution of S-nitrosylated, iodoTMT-labeled peptides with anti-TMT antibody; set-up: species or system mice; conditions: in vitro S-nitrosylated cell lysate
# Description: Peptides were washed with Tris buffered saline (TBS), […] detergent (Waters), or CHAPS detergent and eluted with 0.4% trifluoracetic acid (pH about 2), or washed with TBS and water prior to elution with DMP at the indicated concentrations and pH. Eluted peptides were analyzed by LC-MS/MS on a Thermo Scientific ORBITRAP XL and data was interpreted with Thermo Scientific PROTEOME DISCOVERER 1.3 to identify the eluted peptides and the number of iodoTMT labeled peptides specifically eluted (percentage shown above each bar). […] These peptide samples were enriched with the anti-TMT antibody, and samples of the load, the flowthrough, and the non-specific and specific elutions were assessed for peptide recovery and specificity.
# The cysteine-reactive […] tags and affinity enrichment reagents are used for the enrichment, detection, and quantification of low abundance protein modifications. […] These peptide samples were then enriched with the anti-TMT™ antibody, and a sample of the load, the flowthrough, and the non-specific and specific elutions were assessed for peptide recovery and specificity (FIG. 4B). […]
# For total cysteine alkylation, cell lysates and purified proteins were denatured, reduced, and labeled with excess iodoTMTzero or iodoTMTsixplex reagents prior to enzymatic digestion. […] Peptide samples were analyzed using a Thermo Scientific LTQ™ ORBITRAP XL mass spectrometer. […]
# Anti-TMT™ antibody resin = assay: elution of TMT-labeled protein from anti-TMT antibody resin; set-up: species or system mice; conditions: micromolar to millimolar, intact protein labeled with amine-reactive TMT
# Source text: (§1) As the protein is labeled at nearly all amine sites, more sites on the protein are likely bound to the resin and more competitor reagent is necessary to elute the bound protein (FIG. 3B).
# anti-TMT™ antibody [3] = assay: surface plasmon resonance competitive elution of anti-TMT antibody bound to a TMT-labeled surface; type: binding, mice; conditions: washing in μM to mM concentrations, room temperature
# Description: as §1
# For total cysteine alkylation, cell lysates and purified proteins were denatured, reduced, and labeled with excess iodoTMTzero or iodoTMTsixplex reagents prior to enzymatic digestion. For cysteine S-nitrosylation quantitation, samples were treated with nitrosylation donor agents (e.g. GSH-NO) and alkylated with methyl methanethiosulfonate (MMTS) to block unmodified sulfhydryl groups. […] An anti-TMT antibody resin was used for labeled peptide enrichment. Peptide samples were analyzed using a Thermo Scientific LTQ™ ORBITRAP XL mass spectrometer. Data were analyzed using Thermo Scientific PROTEOME DISCOVERER 1.3 software. Elution buffer was evaluated by surface plasmon resonance (SPR) using a TMT-derivatized CM5 chip on a GE Healthcare BIACORE 3000 instrument.
# [4] = iodoacetyl TMT-labeled cell lysate peptides
smiles,measurement,setting,value
"C[C@@H]1CCC[C@H](C)N1 [DMP, cis-2,6-dimethyl piperidine]",elution efficiency at high pH,"[1]; 10 mM, high pH",even more efficient
same,specificity of elution at high pH,"[1]; 10 mM, high pH",lower specificity of elution
same,number of peptides eluted versus non-specific elution conditions,[1]; [4],over 100 times
same,specificity of elution,[1]; [4],greater than 90%
same,more peptides yielded than a low pH elution,anti-TMT™ antibody [2]; specific elution,approximately 50%
same,specificity of the enrichment of iodoTMT-labeled peptides,anti-TMT™ antibody [2]; specific elution (6% with low pH elution),21%
same,elution of bound TMT-labeled protein from anti-TMT antibody resin,Anti-TMT™ antibody resin,efficiently eluted
same,elution of bound anti-TMT antibody from TMT-labeled surface,anti-TMT™ antibody [3],elutes bound antibody within minutes
